Tests used:
[1] = species on record: Rattus norvegicus; test: animal or person; format: functional; conditions: Liver, po, 168 h
[2] = target: T1, Steryl-sulfatase (Homo sapiens, UniProt P08842); format: microsomes, Placenta, Microsome
T1 sequence (P08842 whole entry): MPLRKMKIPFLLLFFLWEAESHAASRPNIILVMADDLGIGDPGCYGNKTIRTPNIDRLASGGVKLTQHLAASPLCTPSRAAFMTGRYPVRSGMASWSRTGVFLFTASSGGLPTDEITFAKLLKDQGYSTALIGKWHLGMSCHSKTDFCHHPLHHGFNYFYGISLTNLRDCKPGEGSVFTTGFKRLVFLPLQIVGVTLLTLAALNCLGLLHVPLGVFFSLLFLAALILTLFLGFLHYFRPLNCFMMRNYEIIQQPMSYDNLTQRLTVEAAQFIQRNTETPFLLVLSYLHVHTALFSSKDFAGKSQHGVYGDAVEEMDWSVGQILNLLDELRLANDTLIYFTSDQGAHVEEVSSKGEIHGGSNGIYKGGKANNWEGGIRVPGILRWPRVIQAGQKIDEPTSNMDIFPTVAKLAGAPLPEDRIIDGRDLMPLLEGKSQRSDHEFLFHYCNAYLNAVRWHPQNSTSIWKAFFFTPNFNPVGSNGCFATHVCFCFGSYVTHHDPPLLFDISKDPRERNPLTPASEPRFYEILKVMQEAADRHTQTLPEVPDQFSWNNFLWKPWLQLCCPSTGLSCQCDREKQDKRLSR

[3] = species on record: Rattus norvegicus; test: animal or person; format: functional; conditions: Liver, po, 120 h
[4] = cells; format: functional, cell-based; conditions: Homo sapiens, A2780 ADR
[5] = system: LNCaP; test: cells; format: functional, cell-based; conditions: Homo sapiens
[6] = cells; format: functional, cell-based; conditions: Homo sapiens, PC-3
[7] = system: A2780cisR; test: cells; format: functional, cell-based; conditions: Homo sapiens
[8] = system: MCF7; test: cells; format: functional; conditions: Homo sapiens
[9] = system: MDA-MB-231; test: cells; format: functional; conditions: Homo sapiens
[10] = target: T1, Steryl-sulfatase; set-up: species or system Placenta, Microsome
[11] = target: T2, Cytochrome P450 1A2 (Homo sapiens, UniProt P05177)
T2 sequence (P05177 whole entry): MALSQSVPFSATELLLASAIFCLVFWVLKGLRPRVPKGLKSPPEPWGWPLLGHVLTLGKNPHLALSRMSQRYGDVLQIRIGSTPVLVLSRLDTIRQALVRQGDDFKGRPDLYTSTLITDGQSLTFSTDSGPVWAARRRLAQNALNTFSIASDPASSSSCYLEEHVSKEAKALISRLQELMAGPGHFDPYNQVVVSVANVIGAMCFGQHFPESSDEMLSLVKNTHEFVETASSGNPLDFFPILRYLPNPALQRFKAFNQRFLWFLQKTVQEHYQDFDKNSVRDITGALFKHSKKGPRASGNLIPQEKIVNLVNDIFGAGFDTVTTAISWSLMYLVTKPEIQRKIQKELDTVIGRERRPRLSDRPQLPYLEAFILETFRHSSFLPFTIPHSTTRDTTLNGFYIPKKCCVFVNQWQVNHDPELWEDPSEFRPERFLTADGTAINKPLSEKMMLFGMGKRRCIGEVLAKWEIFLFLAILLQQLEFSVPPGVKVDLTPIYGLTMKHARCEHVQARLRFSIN

[12] = target: T1, Steryl-sulfatase; format: cell-based, MCF7
[13] = system: DU-145; test: cells; format: functional; conditions: Homo sapiens
[14] = species on record: Rattus norvegicus; test: animal or person; format: functional; conditions: Wistar, po, 3 h
[15] = target: T1, Steryl-sulfatase; format: cell-based, JEG-3
[16] = species on record: Rattus norvegicus; test: animal or person; format: functional; conditions: Wistar, po, 3 h; remark: listed apart in the source
[17] = target: T3, Estrogen receptor (Homo sapiens, UniProt P03372)
T3 sequence (P03372 whole entry): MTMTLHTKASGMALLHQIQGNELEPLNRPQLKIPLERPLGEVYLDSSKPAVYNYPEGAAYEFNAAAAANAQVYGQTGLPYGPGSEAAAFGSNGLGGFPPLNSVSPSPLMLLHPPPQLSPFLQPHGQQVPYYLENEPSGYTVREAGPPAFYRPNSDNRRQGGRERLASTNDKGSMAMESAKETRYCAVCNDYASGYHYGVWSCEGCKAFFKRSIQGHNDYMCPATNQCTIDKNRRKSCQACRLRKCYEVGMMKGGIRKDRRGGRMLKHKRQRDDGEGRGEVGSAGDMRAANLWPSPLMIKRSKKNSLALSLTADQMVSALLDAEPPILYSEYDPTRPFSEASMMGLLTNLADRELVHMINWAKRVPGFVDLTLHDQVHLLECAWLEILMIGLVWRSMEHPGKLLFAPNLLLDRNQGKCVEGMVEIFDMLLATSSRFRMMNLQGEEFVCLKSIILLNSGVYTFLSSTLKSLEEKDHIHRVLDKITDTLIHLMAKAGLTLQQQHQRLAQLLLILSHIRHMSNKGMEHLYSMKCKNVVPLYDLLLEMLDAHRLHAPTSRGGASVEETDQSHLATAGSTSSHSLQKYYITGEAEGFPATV

[18] = system: MCF7; test: cells; format: functional; conditions: Homo sapiens; remark: listed apart in the source
[19] = system: MCF7; test: animal or person; format: functional, Homo sapiens; conditions: Mus musculus, MCF7, po
[20] = system: MCF7; test: cells; format: functional, cell-based; conditions: Homo sapiens
[21] = system: MDA-MB-231; test: cells; format: functional, cell-based; conditions: Homo sapiens
[22] = species on record: Homo sapiens; format: functional
[23] = species on record: Homo sapiens; format: functional; remark: listed apart in the source

## Cc1cc(=O)oc2cc(OS(N)(=O)=O)ccc12
[1]
  inhibition in vivo at 10 mg/kg/day: 85%

## C[C@]12CC[C@@H]3c4ccc(OS(N)(=O)=O)cc4CC[C@H]3[C@@H]1CC(=O)N(Cc1cccnc1)C2=O
[2]
  IC50: 1 nM
[3]
  inhibition in vivo at 10 mg/kg/day: 99%

## CCc1cc2c(cc1OS(N)(=O)=O)CC[C@@H]1[C@@H]2CC[C@]2(C)C(=O)CC[C@@H]12
[4]
  IC50: 100 nM
[5]
  IC50: 100 nM
[6]
  IC50: 100 nM
[7]
  IC50: 100 nM
[8]
  GI50: 340 nM

## C[C@]12CC[C@@H]3c4ccc(OS(N)(=O)=O)c(Br)c4CC[C@H]3[C@@H]1CCC2=O
[8]
  GI50: 42 nM

## COc1cccc(CN2Cc3cc(OC)c(OS(N)(=O)=O)cc3CC2C)c1 (centres undefined)
[9]
  GI50: 234 nM

## NS(=O)(=O)Oc1ccc2c3c(c(=O)oc2c1)CCC3
[10]
  IC50: 200 nM

## NS(=O)(=O)Oc1ccc2c3c(c(=O)oc2c1)CCCC3
[10]
  IC50: 70 nM

## NS(=O)(=O)Oc1ccc2c3c(c(=O)oc2c1)CCCCCC3
[10]
  IC50: 30 nM

## NS(=O)(=O)Oc1ccc2c3c(c(=O)oc2c1)CCCCCCC3
[10]
  IC50: 2.4 nM

## NS(=O)(=O)Oc1ccc2c3c(c(=O)oc2c1)CCCCCCCC3
[10]
  IC50: 1 nM

## NS(=O)(=O)Oc1ccc2c3c(c(=O)oc2c1)CCCCCCCCCC3
[10]
  IC50: 60 nM

## NS(=O)(=O)Oc1ccc2c3c(c(=O)oc2c1)CCCCCCCCCCC3
[10]
  IC50: 75 nM

## NS(=O)(=O)Oc1ccc2c3c(c(=O)oc2c1)CCCCCCCCCCCCC3
[10]
  IC50: 370 nM

## O=c1oc2cc(O)ccc2c2c1CCCCC2
[11]
  Ki: 770 nM

## C[C@]12CC[C@@H]3c4ccc(OS(N)(=O)=O)cc4CC[C@H]3[C@@H]1CC(=O)NC2=O
[2]
  IC50: 20 nM

## CN1C(=O)C[C@H]2[C@@H]3CCc4cc(OS(N)(=O)=O)ccc4[C@H]3CC[C@]2(C)C1=O
[2]
  IC50: 12 nM

## CCN1C(=O)C[C@H]2[C@@H]3CCc4cc(OS(N)(=O)=O)ccc4[C@H]3CC[C@]2(C)C1=O
[2]
  IC50: 52 nM

## CCCCN1C(=O)C[C@H]2[C@@H]3CCc4cc(OS(N)(=O)=O)ccc4[C@H]3CC[C@]2(C)C1=O
[2]
  IC50: 382 nM

## CCCCCCN1C(=O)C[C@H]2[C@@H]3CCc4cc(OS(N)(=O)=O)ccc4[C@H]3CC[C@]2(C)C1=O
[2]
  IC50: 288 nM

## CC(C)(C)c1ccc(CN2C(=O)C[C@H]3[C@@H]4CCc5cc(OS(N)(=O)=O)ccc5[C@H]4CC[C@]3(C)C2=O)cc1
[2]
  IC50: 23 nM

## C[C@]12CC[C@@H]3c4ccc(OS(N)(=O)=O)cc4CC[C@H]3[C@@H]1CC(=O)N(Cc1ccccc1)C2=O
[2]
  IC50: 3 nM

## C=CCN1C(=O)C[C@H]2[C@@H]3CCc4cc(OS(N)(=O)=O)ccc4[C@H]3CC[C@]2(C)C1=O
[2]
  IC50: 75 nM

## CC/C(=C(/CC)c1ccc(OS(N)(=O)=O)cc1)c1ccc(OS(N)(=O)=O)cc1
[12]
  IC50: 10 nM

## CCc1cc2c(cc1OS(N)(=O)=O)CCN(Cc1cc(OC)c(OC)c(OC)c1)C2
[9]
  GI50: 52 nM
[13]
  GI50: 41 nM

## CCC1Cc2cc(OS(N)(=O)=O)c(OC)cc2CN1Cc1cccc(OC)c1 (centres undefined)
[9]
  GI50: 281 nM
[13]
  GI50: 286 nM

## COc1ccc(F)c(CN2Cc3cc(OC)c(OS(N)(=O)=O)cc3CC2C)c1 (centres undefined)
[9]
  GI50: 269 nM
[13]
  GI50: 299 nM

## COc1ccc(OC)c(CN2Cc3cc(OC)c(OS(N)(=O)=O)cc3CC2C)c1 (centres undefined)
[9]
  GI50: 160 nM
[13]
  GI50: 189 nM

## COc1cc2c(cc1OS(N)(=O)=O)CCN(Cc1cc(OC)c(OC)c(OC)c1)C2C (centres undefined)
[9]
  GI50: 300 nM
[13]
  GI50: 360 nM

## COc1cc2c(cc1OS(N)(=O)=O)CCN(Cc1cc(Cl)c(OC)c(OC)c1)C2
[9]
  GI50: 40 nM
[13]
  GI50: 40 nM

## COc1cc2c(cc1OS(N)(=O)=O)CCN(Cc1cc(Br)c(OC)c(OC)c1)C2
[9]
  GI50: 30 nM
[13]
  GI50: 30 nM

## CCc1cc2c(cc1OS(N)(=O)=O)CCN(Cc1cc(Br)c(OC)c(OC)c1)C2
[9]
  GI50: 30 nM
[13]
  GI50: 20 nM

## CCOc1c(OC)cc(CN2CCc3cc(OS(N)(=O)=O)c(OC)cc3C2)cc1OC
[9]
  GI50: 70 nM
[13]
  GI50: 100 nM

## N#Cc1ccc(N(CCSc2ccc(OS(N)(=O)=O)c(Cl)c2)n2cnnc2)cc1
[14]
  inhibition in vivo at 10 mg/kg: 98%
[15]
  IC50: 1200 nM
[16]
  inhibition in vivo at 10 mg/kg: 92%

## N#Cc1ccc(N(Cc2ccc3cc(OS(N)(=O)=O)ccc3c2)n2cnnc2)cc1
[15]
  IC50: 367 nM

## N#Cc1ccc(N(Cc2ccc3c(Cl)c(OS(N)(=O)=O)ccc3c2)n2cnnc2)cc1
[14]
  inhibition in vivo at 10 mg/kg: 93%
[15]
  IC50: 26 nM
[16]
  inhibition in vivo at 10 mg/kg: 93%

## N#Cc1ccc(N(Cc2ccc3c(Br)c(OS(N)(=O)=O)ccc3c2)n2cnnc2)cc1
[15]
  IC50: 205 nM

## Cn1nnc2ccc(C(c3ccc(OS(N)(=O)=O)cc3)n3cncn3)cc21 (centres undefined)
[15]
  IC50: > 10000 nM

## CCN(Cc1ccc(C(=O)N2CCc3ccc(O)cc3C2)cc1)Cc1ccccn1
[17]
  IC50: 24600 nM

## COc1cc2c(cc1OS(N)(=O)=O)CC[C@@H]1[C@@H]2CC[C@]2(C)C(=O)CC[C@@H]12
[4]
  IC50: 100 nM
[10]
  IC50: 30 nM
[5]
  IC50: 100 nM
[6]
  IC50: 100 nM
[7]
  IC50: 100 nM
[18]
  inhibition at 1 µM: 52%
[8]
  GI50: 300 nM

## COc1cc2c(cc1OS(N)(=O)=O)CC[C@@H]1[C@@H]2CC[C@]2(C)[C@@H](CC#N)CC[C@@H]12
[19]
  inhibition in vivo at 20 mg/kg: 22%
[20]
  IC50: 70 nM
[21]
  IC50: 80 nM

## N#Cc1ccc(N(Cc2ccc(OS(N)(=O)=O)cc2)n2cnnc2)cc1
[14]
  inhibition in vivo at 10 mg/kg: 39%

## C[C@]12CC[C@@H]3c4ccc(OS(N)(=O)=O)cc4CC[C@H]3[C@@H]1CC[C@@H]2O [E2MATE]
[22]
  inhibition (INH): 91%
[23]
  inhibition (INH): 96%
